Assay [1] has as its target thrombin-stimulated platelets (Homo sapiens, UniProt P05106+P08514). Put plainly: Fibrinogen-Binding Assay (125I-fibrinogen binding to platelets). The protocol:
Platelets are washed free of plasma constituents by the albumin density-gradient technique of Walsh, P. N., et al., Br. J. Haematol. […] After these additions, the final platelet count in the mixture is 1×10^11 /liter. After incubation for an additional 30 minutes at 22°-25° C., bound and free ligand are separated by centrifuging 50 μl of the mixture through 300 μl of 20% sucrose at 12,000×g for 4 minutes. The platelet pellet is then separated from the rest of the mixture to determine platelet-bound radioactivity. Nonspecific binding is measured in mixtures containing an excess of unlabeled ligand. […] The IC50 is derived by plotting residual fibrinogen binding against the logarithm of the sample compound's concentration.

The target in assay [2] is fixed activated platelets (Homo sapiens, UniProt P05106+P08514). Put plainly: Platelet Aggregation Assay (fibrinogen-mediated aggregation of fixed-activated platelets). It is filed as cell-based. The protocol: PLATELET AGGREGATION ASSAY
Preparation of Fixed-Activated Platelets
To the activated platelets is added paraformaldehyde to a final concentration of 0.50% and this incubated at room temperature for 30 minutes. The fixed activated platelets are then collected by centrifugation at 650×g for 15 minutes.
Platelet Aggregation Assay
The fixed activated platelets are incubated with a selected dose of the compound to be tested for platelet aggregation inhibition for one minute and aggregation initiated by addition of human fibrinogen to a final concentration of 250 μg/ml. A platelet aggregation profiler Model PAP-4 is used to record the platelet aggregation.

Setting [3] is: 125I-fibrinogen 0.176 μmol/liter, thrombin-stimulated platelets; read-out: Inhibition of 125I-Fibrinogen Binding to Platelets IC50.
Setting [4] is: fixed activated platelets, human fibrinogen 250 μg/ml; read-out: Inhibition of Fibrinogen Mediated Platelet Aggregation IC50.
Where [5] appears, read: read-out: Inhibition of Fibrinogen Mediated Platelet Aggregation % inhibition at 25 μM.
Setting [6] is: read-out: Inhibition of Fibrinogen Mediated Platelet Aggregation % inhibition at 100 μM.

Where two headings read alike, the source gives them in different places. Non-standard residues stand in square brackets, D forms with d. Residues, ends and D or L forms follow the SMILES beside them. NMeV = CN[C@H](C(=O)O)C(C)C; Aoc = NCCCCCCCC(=O)O; Sar = CNCC(=O)O

thrombin-stimulated platelets, sequence (P08514 32-1039): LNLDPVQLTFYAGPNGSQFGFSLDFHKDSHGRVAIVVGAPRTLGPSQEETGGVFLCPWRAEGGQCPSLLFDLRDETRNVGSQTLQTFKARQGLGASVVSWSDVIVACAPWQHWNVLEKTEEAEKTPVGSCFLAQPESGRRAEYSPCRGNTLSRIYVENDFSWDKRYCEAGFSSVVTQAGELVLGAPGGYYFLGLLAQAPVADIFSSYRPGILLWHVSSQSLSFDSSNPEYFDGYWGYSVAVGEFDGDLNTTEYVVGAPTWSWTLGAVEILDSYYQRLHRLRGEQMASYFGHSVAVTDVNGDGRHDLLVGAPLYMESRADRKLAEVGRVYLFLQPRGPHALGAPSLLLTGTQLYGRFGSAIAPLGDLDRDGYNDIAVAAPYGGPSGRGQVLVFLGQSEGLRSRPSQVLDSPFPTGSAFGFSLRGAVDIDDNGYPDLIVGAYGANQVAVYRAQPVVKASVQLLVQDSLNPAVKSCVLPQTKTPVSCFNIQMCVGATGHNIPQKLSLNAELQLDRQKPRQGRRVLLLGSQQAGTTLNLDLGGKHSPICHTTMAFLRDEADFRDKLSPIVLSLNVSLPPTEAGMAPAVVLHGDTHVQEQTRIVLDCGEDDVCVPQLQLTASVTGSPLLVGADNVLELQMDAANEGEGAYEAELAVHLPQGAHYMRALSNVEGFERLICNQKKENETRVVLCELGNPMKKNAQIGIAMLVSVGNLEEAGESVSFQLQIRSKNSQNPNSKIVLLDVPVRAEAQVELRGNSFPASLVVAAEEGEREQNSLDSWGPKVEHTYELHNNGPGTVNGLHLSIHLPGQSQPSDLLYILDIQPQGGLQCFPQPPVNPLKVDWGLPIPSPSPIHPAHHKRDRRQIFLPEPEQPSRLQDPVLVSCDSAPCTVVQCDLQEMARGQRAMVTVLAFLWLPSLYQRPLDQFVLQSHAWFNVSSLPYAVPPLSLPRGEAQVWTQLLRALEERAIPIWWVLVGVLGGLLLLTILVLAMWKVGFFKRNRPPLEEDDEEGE
thrombin-stimulated platelets, sequence (P05106 27-788): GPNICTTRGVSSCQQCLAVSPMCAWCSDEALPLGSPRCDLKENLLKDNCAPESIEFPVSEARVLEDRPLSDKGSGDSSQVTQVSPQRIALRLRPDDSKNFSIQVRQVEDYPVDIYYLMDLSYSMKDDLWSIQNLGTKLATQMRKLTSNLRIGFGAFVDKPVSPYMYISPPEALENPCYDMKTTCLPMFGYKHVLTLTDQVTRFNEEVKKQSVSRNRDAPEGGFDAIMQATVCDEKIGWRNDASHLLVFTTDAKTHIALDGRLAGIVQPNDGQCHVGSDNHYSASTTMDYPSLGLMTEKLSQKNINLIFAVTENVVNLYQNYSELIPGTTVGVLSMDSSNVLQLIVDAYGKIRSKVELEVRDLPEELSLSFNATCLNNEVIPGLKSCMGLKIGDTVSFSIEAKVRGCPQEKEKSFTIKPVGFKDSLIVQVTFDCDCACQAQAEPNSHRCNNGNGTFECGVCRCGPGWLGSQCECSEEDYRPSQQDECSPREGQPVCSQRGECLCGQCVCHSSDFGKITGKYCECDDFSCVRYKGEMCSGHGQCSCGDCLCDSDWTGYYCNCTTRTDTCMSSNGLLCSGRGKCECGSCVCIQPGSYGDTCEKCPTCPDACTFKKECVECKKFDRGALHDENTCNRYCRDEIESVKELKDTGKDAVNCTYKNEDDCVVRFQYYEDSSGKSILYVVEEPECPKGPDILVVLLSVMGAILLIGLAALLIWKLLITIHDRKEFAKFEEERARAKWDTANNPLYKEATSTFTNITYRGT
fixed activated platelets, sequence (P08514 32-1039): as the sequence (P08514 32-1039) above
fixed activated platelets, sequence (P05106 27-788): as the sequence (P05106 27-788) above

For `CC(C)[C@H](NC(=O)[C@H](CC(=O)O)NC(=O)CNC(=O)CCCNC(=N)N)C(=O)O` [4-Guanidinobutanoyl-glycyl-L-aspartyl-L-valine], the values for the IC50 in assay [1] (setting [3]) and in assay [2] (setting [4]) were 10 µM and 21.9 µM, respectively. Besides, the inhibition at 25 µM in assay [2] (setting [5]) stood at 43%.

`N=C(N)NCCCCCCCCC(=O)N[C@@H](CC(=O)O)C(=O)NCCC(=O)N[C@@H](CCCNC(=N)N)C(=O)O` [9-Guanidinononanoyl-L-aspartyl-β-alanyl-L-arginine]: the figures for the IC50 in assay [1] (setting [3]) and in assay [2] (setting [4]) were 0.64 µM and 1.5 µM, respectively. Besides, the inhibition at 25 µM in assay [2] (setting [5]) worked out at 93%.

In the case of `CC(C)[C@H](NC(=O)[C@H](CC(=O)O)NC(=O)CN(C(=O)CCCCCNC(=N)N)C1CCCC1)C(=O)O` [6-Guanidinohexanoyl-N-cyclopentylglycine-L-aspartyl-L-valine], the IC50 in assay [1] (setting [3]) worked out at 0.88 µM; in assay [2] (setting [4]), 5.7 µM. The inhibition at 25 µM in assay [2] (setting [5]) was 76%.

On to `N=C(N)NCCC[C@H](N)C(=O)NCC(=O)N[C@@H](CC(=O)O)C(=O)OCc1ccccc1` [L-arginylglycyl-L-aspartic acid α-benzyl ester], for which the half-inhibitory concentration (IC50) was found to be 25 µM in assay [1] (setting [3]) and 14 µM in assay [2] (setting [4]). In addition, the inhibition at 100 µM in assay [2] (setting [6]) was 96%.

`CCN(CC(=O)N[C@@H](CC(=O)O)C(=O)N[C@@H](Cc1c[nH]c2ccccc12)C(=O)O)C(=O)CCCCCNC(=N)N` [6-Guanidinohexanoyl-N-(ethyl)glycyl-L-aspartyl-L-tryptophan]: the IC50 in assay [1] (setting [3]) came out at 0.13 µM; in assay [2] (setting [4]) it was 1.3 µM. The inhibition at 25 µM in assay [2] (setting [5]) worked out at 91%.

Consider `CC(C)CNC(=O)[C@H](CC(=O)O)NC(=O)CCCCCCCNC(=N)N` [8-Guanidinooctanoyl-L-aspartic acid-α-isobutylamide], for which the IC50 in assay [1] (setting [3]) was determined as 14.5 µM; in assay [2] (setting [4]), 7.8 µM. Further, in assay [2] (setting [5]), the inhibition at 25 µM turned out to be 81%.

Turning to `N=C(N)NCCCCCCCCC(=O)N[C@@H](CC(=O)O)C(=O)NC(Cc1ccccc1)(Cc1ccccc1)C(=O)O` [9-Guanidinononanoyl-L-aspartyl-α-benzylphenylalanine], the IC50 was more than 200 µM in assay [1] (setting [3]) and more than 25 µM in assay [2] (setting [4]). For the same compound, in assay [2] (setting [5]), the inhibition at 25 µM was 10%.

With `CC(C)[C@H](NC(=O)[C@H](CC(=O)O)NC(=O)CN(C)C(=O)CCCCCCCN)C(=O)O` [8-Aminooctanoyl-sarcosyl-L-aspartyl-L-valine] (H-[Aoc][Sar]DV-OH), the IC50 in assay [1] (setting [3]) came to 0.23 µM; in assay [2] (setting [4]) it was 2.6 µM. The inhibition at 25 µM in assay [2] (setting [5]) worked out at 96%.

As to `N=C(N)NCCCCCC=CC(=O)N[C@@H](CC(=O)O)C(=O)N[C@@H](CCCNC(=N)N)C(=O)O` [8-Guanidinooct-2-enoyl-L-aspartyl-L-arginine], the IC50 in assay [1] (setting [3]) is 0.58 µM; in assay [2] (setting [4]), 0.63 µM. Moreover, in assay [2] (setting [5]), the inhibition at 25 µM came out at 90%.

As for `N=C(N)NCCCCCCCCC(=O)N[C@@H](CC(=O)O)C(=O)N[C@@H](CCCNC(=N)N)C(=O)O` [9-Guanidinononanoyl-L-aspartyl-L-arginine], the values for the IC50 in assay [1] (setting [3]) and in assay [2] (setting [4]) were 0.13 µM and 0.26 µM, respectively. The inhibition at 25 µM in assay [2] (setting [5]) was found to be 97%.

With `CCN(CC(=O)N[C@@H](CC(=O)O)C(=O)N[C@@H](CCCNC(=N)N)C(=O)O)C(=O)CCCCNC(=N)N` [5-guanidino-N-(ethyl)-glycyl-L-aspartyl-L-arginine], the values for the 50% inhibitory concentration (IC50) in assay [1] (setting [3]) and in assay [2] (setting [4]) were 1.9 µM and 0.23 µM, respectively. In addition, the inhibition at 25 µM in assay [2] (setting [5]) was 93%.

As to `CCN(CC(=O)N[C@@H](CC(=O)O)C(=O)NC(CC)(CC)C(=O)O)C(=O)CCCCCNC(=N)N` [6-Guanidinohexanoyl-N-ethyl-glycyl-L-aspartyl-2,2-diethylglycine], the IC50 in assay [1] (setting [3]) is 5 µM; in assay [2] (setting [4]), 11.4 µM. Further, the inhibition at 25 µM in assay [2] (setting [5]) amounted to 73%.

`CC(C)CNC(=O)[C@H](CCCNC(=N)N)NC(=O)[C@H](CC(=O)O)NC(=O)CCCCCCCCNC(=N)N` [9-Guanidinononanoyl-L-aspartyl-L-arginine isobutyl amide]: the results for the IC50 in assay [1] (setting [3]) and in assay [2] (setting [4]) were 3 µM and 2.2 µM, respectively. In assay [2] (setting [5]), the inhibition at 25 µM turned out to be 89%.

With `CC(C)[C@@H](C(=O)O)N(C)C(=O)[C@H](CC(=O)O)NC(=O)CNC(=O)[C@@H](N)CCCNC(=N)N` [L-arginylglycyl-L-aspartyl-L-(N-methyl)-valine] (H-RGD[NMeV]-OH), in assay [1] (read-out: Inhibition of 125I-Fibrinogen Binding to Platelets: Inhibited <50% at 50 μg/ml), the inhibition at 50 µg/mL was less than 50%. In addition, the IC50 in assay [2] (setting [4]) was determined as 160 µM. Also, in assay [2] (setting [6]), the inhibition at 100 µM stood at 30%.

Take `CC[C@H](C)[C@H](NC(=O)[C@H](CC(=O)O)NC(=O)CCCCCCCCNC(=N)N)C(=O)N[C@@H](CCCNC(=N)N)C(=O)O` [9-Guanidinononanoyl-L-aspartyl-isoleucyl-arginine]: the IC50 in assay [1] (setting [3]) turned out to be 0.37 µM; in assay [2] (setting [4]) it was 0.67 µM. For the same compound, in assay [2] (setting [5]), the inhibition at 25 µM stood at 94%.

`CC(C)[C@H](NC(=O)[C@H](CC(=O)O)NC(=O)CN(C)C(=O)CCCCNC(=N)N)C(=O)O` [5-Guanidinovaleroyl-sarcosyl-L-aspartyl-L-valine]: the IC50 in assay [1] (setting [3]) came out at 1 µM; in assay [2] (setting [4]) it was 0.52 µM. Further, the inhibition at 25 µM in assay [2] (setting [5]) was determined as 94%.

As for `CC(C)[C@H](NC(=O)[C@H](CC(=O)O)NC(=O)CN(C)C(=O)CCCCCn1ccnc1-c1ccccc1)C(=O)O` [6-(2-Phenylimidazol-1-yl)hexanoyl-sarcosyl-L-aspartyl-L-valine], the IC50 is 0.38 µM in assay [1] (setting [3]) and 5.6 µM in assay [2] (setting [4]). Moreover, the inhibition at 25 µM in assay [2] (setting [5]) was 84%.

As for `CC(C)[C@H](NC(=O)[C@H](CC(=O)O)NC(=O)CN(Cc1ccccc1)C(=O)CCCCCNC(=N)N)C(=O)O` [6-Guanidinohexanoyl-N-benzylglycyl-L-aspartyl-L-valine], the IC50 came out at 0.84 µM in assay [1] (setting [3]) and 5.7 µM in assay [2] (setting [4]). Besides, in assay [2] (setting [5]), the inhibition at 25 µM amounted to 85%.

For the compound `CC(C)[C@H](NC(=O)[C@H](CC(=O)O)NC(=O)Cn1nnnc1CCCCCNC(=N)N)C(=O)O` [[5-(5'-Guanidinopentyl)Tetrazol-1-yl]-Acetyl-L-Aspartyl-L-Valine], the IC50 was 2.2 µM in assay [1] (read-out: Inhibition of 125I-Fibrinogen Binding to Platelets IC50; 125I-fibrinogen 0.176 μmol/liter, thrombin-stimulated platelets) and more than 25 µM in assay [2] (read-out: Inhibition of Fibrinogen Mediated Platelet Aggregation IC50; fixed activated platelets, human fibrinogen 250 μg/ml). In assay [2] (setting [5]), the inhibition at 25 µM was 40%.

Turning to `CCN(CC(=O)N[C@@H](CC(=O)O)C(=O)N[C@@H](CC(C)C)C(=O)O)C(=O)CCCCCNC(=N)N` [6-guanidinohexanoyl-N-ethyl-glycyl-L-aspartyl-L-leucine], the IC50 in assay [1] (setting [3]) was found to be 5.4 µM; in assay [2] (setting [4]), 0.56 µM. For the same compound, the inhibition at 25 µM in assay [2] (setting [5]) was 95.5%.

Turning to `COC(=O)[C@](CCCNC(=N)N)(Cc1ccccc1)NC(=O)[C@H](CC(=O)O)NC(=O)CCCCCCCCNC(=N)N` [9-Guanidinononanoyl-L-aspartyl-(S)-α-benzyl arginine methyl ester], the half-inhibitory concentration (IC50) was found to be 20 µM in assay [1] (setting [3]) and 13.3 µM in assay [2] (setting [4]). Moreover, the inhibition at 25 µM in assay [2] (setting [5]) worked out at 69%.

Turning to `CC(C)[C@H](NC(=O)[C@H](CC(=O)O)NC(=O)CCCCCCCNC(=N)N)C(=O)O` [8-Guanidinooctanoyl-L-aspartyl-L-valine], the IC50 in assay [1] (setting [3]) came to 2.8 µM; in assay [2] (setting [4]) it was 2.7 µM. Moreover, the inhibition at 25 µM in assay [2] (setting [5]) stood at 89%.

Regarding `CC(C)[C@H](NC(=O)[C@H](CC(=O)O)NC(=O)CCCCCCCn1ccnc1)C(=O)O` [8-(Imidazol-1-yl)-octanoyl-L-aspartyl-L-valine], the IC50 in assay [1] (setting [3]) was determined as 0.86 µM; in assay [2] (setting [4]) it was 11.6 µM. In addition, the inhibition at 25 µM in assay [2] (setting [5]) is 78%.

`CC[C@H](C)[C@H](NC(=O)[C@H](CCCNC(=N)N)NC(=O)[C@H](CC(=O)O)NC(=O)CCCCCCCCNC(=N)N)C(=O)O` [9-Guanidinononanoyl-L-aspartyl-arginyl-isoleucine]: the IC50 turned out to be 1.2 µM in assay [1] (setting [3]) and 2.4 µM in assay [2] (setting [4]). The inhibition at 25 µM in assay [2] (setting [5]) is 93%.

Regarding `CCN(CC(=O)N[C@@H](CC(=O)O)C(=O)N[C@H](C(=O)O)C(C)C)C(=O)CCCCCNC(=N)N` [6-Guanidinohexanoyl-N-ethylglycine-L-aspartyl-L-valine], the figures for the IC50 in assay [1] (setting [3]) and in assay [2] (setting [4]) were 0.12 µM and 0.38 µM, respectively. In addition, the inhibition at 25 µM in assay [2] (setting [5]) is 96%.

Take `CCN(CC(=O)N[C@@H](CC(=O)O)C(=O)N[C@@H](Cc1ccccc1)C(=O)O)C(=O)CCCCCNC(=N)N` [6-Guanidinohexanoyl-N-ethylglycyl-L-aspartyl-L-phenylalanine]: the IC50 stood at 0.2 µM in assay [1] (setting [3]) and 1.3 µM in assay [2] (setting [4]). The inhibition at 25 µM in assay [2] (setting [5]) was 97%.

With `CC(C)[C@H](NC(=O)[C@H](CC(=O)O)NC(=O)CCCCCCCCn1ccnc1)C(=O)O` [9-(Imidazol-1-yl)-nonanoyl-L-aspartyl-L-valine], the IC50 is 0.5 µM in assay [1] (setting [3]) and 3.4 µM in assay [2] (setting [4]). The inhibition at 25 µM in assay [2] (setting [5]) is 96%.

In the case of `CC(C)[C@H](NC(=O)[C@H](CC(=O)O)NC(=O)CCCCCCCCNC(=N)N)C(=O)O` [9-guanidinononanoyl-L-aspartyl-L-valine], the results for the IC50 in assay [1] (setting [3]) and in assay [2] (setting [4]) were 0.2 µM and 1.7 µM, respectively. Also, in assay [2] (setting [5]), the inhibition at 25 µM is 96%.

Broadly, the IC50 is the concentration that gives 50% inhibition.

Source of the values: patent US5332726A, “Antithrombotic peptides and pseudopeptides” (Rhone-Poulenc Rorer Pharmaceuticals Inc., priority 1992, dated 1994).
